# In ChEMBL document CHEMBL3045118, “Synthesis and biological activities of new Mannich bases of chlorokojic acid derivatives” (Med Chem Res, 2011):
# Key:
# [1] = Cytotoxicity against Bos taurus (bovine) MDBK cells assessed as maximum non-toxic concentration; type: cell-based; details: cattle, read-out: MNCC
# Pseudomonas aeruginosa [2] = test: Antibacterial activity against trimethoprim-sulfamethoxazole, tazobactam-resistant Pseudomonas aeruginosa by microdilution method; type: functional
# Enterococcus faecalis [3] = test: Antibacterial activity against Enterococcus faecalis ATCC 29212 by microdilution method; type: functional
# Human alphaherpesvirus 1 [4] = test: Antiviral activity against Human herpesvirus 1 infected bovine MDBK cells assessed as concentration required to cause maximum inhibition of virus-induced cytopathic effect; type: functional
# Pseudomonas aeruginosa [5] = test: Antibacterial activity against Pseudomonas aeruginosa ATCC 10145 by microdilution method; type: functional
# Human respirovirus 3 [6] = test: Antiviral activity against Human parainfluenza virus 3 infected African green monkey Vero cells assessed as concentration required to cause maximum inhibition of virus-induced cytopathic effect; type: functional
# Staphylococcus aureus [7] = test: Antibacterial activity against oxacillin, gentamicin, aztreonam, trimethoprim-sulfamethoxazole-resistant Staphylococcus aureus by microdilution method; type: functional
# Staphylococcus aureus [8] = test: Antibacterial activity against Staphylococcus aureus ATCC 25923 by microdilution method; type: functional
# Escherichia coli [9] = test: Antibacterial activity against Escherichia coli ATCC 35218 by microdilution method; type: functional
# Candida albicans = test: Antifungal activity against Candida albicans ATCC 10231 by microdilution method; type: functional
# Proteus mirabilis [10] = test: Antibacterial activity against Proteus mirabilis ATCC 7002 by microdilution method; type: functional
# [11] = Cytotoxicity against Chlorocebus aethiops (African green monkey) Vero cells assessed as maximum non-toxic concentration; type: cell-based; details: chlorocebus sabaeus, read-out: MNCC
# Klebsiella pneumoniae [12] = test: Antibacterial activity against Klebsiella pneumoniae RSKK 574 by microdilution method; type: functional
# Human respirovirus 3 [13] = test: Antiviral activity against Human parainfluenza virus 3 infected African green monkey Vero cells assessed as concentration required to cause minimum inhibition of virus-induced cytopathic effect; type: functional
# Enterococcus faecalis [14] = test: Antibacterial activity against cephalosporins and beta-lactam-resistant Enterococcus faecalis by microdilution method; type: functional
# Acinetobacter baumannii [15] = test: Antibacterial activity against Acinetobacter baumannii RSKK 02026 by microdilution method; type: functional
# Bacillus subtilis [16] = test: Antibacterial activity against ceftriaxon-resistant Bacillus subtilis by microdilution method; type: functional
# Proteus mirabilis [17] = test: Antibacterial activity against ESbetaL positive rimethoprim-sulfamethoxazole, cefepime, tazobactam-resistant Proteus mirabilis by microdilution method; type: functional
# Candida parapsilosis = test: Antifungal activity against Candida parapsilosis ATCC 22019 by microdilution method; type: functional; details: Lodderomyces parapsilosis
# Bacillus subtilis [18] = test: Antibacterial activity against Bacillus subtilis ATCC 6633 by microdilution method; type: functional
# Escherichia coli [19] = test: Antibacterial activity against ESbetaL positive trimethoprim-sulfamethoxazole, cefepime, tazobactam-resistant Escherichia coli isolate by microdilution method; type: functional
# Human alphaherpesvirus 1 [20] = test: Antiviral activity against Human herpesvirus 1 infected bovine MDBK cells assessed as concentration required to cause minimum inhibition of virus-induced cytopathic effect; type: functional
# Klebsiella pneumoniae [21] = test: Antibacterial activity against ESbetaL positive trimethoprim-sulfamethoxazole, amoxicillin clavulonat, cefriaxon, cephepim, aztreonam-resistant Klebsiella pneumoniae by microdilution method; type: functional
# Acinetobacter baumannii [22] = test: Antibacterial activity against trimethoprim-sulfamethoxazole, cefepime-resistant Acinetobacter baumannii by microdilution method; type: functional
Compound,MNTC [1] [µg/mL],MIC (Pseudomonas aeruginosa [2]) [µg/mL],MIC (Enterococcus faecalis [3]) [µg/mL],Activity (Human alphaherpesvirus 1 [4]) [µg/mL],MIC (Pseudomonas aeruginosa [5]) [µg/mL],Activity (Human respirovirus 3 [6]) [µg/mL],MIC (Staphylococcus aureus [7]) [µg/mL],MIC (Staphylococcus aureus [8]) [µg/mL],MIC (Escherichia coli [9]) [µg/mL],MIC (Candida albicans) [µg/mL],MIC (Proteus mirabilis [10]) [µg/mL],MNTC [11] [µg/mL],MIC (Klebsiella pneumoniae [12]) [µg/mL],Activity (Human respirovirus 3 [13]) [µg/mL],MIC (Enterococcus faecalis [14]) [µg/mL],MIC (Acinetobacter baumannii [15]) [µg/mL],MIC (Bacillus subtilis [16]) [µg/mL],MIC (Proteus mirabilis [17]) [µg/mL],MIC (Candida parapsilosis) [µg/mL],MIC (Bacillus subtilis [18]) [µg/mL],further results
O=c1cc(CCl)oc(CN2CCN(c3ccccc3Cl)CC2)c1O,1.6,> 128,8,0.4,64,0.4,> 128,8,64,16,64,0.4,64,0.2,> 128,64,> 128,> 128,16,16,MIC (Escherichia coli [19]): > 128 µg/mL; Activity (Human alphaherpesvirus 1 [20]): 0.1 µg/mL; MIC (Klebsiella pneumoniae [21]): > 128 µg/mL; MIC (Acinetobacter baumannii [22]): > 128 µg/mL
O=c1cc(CCl)oc(CN2CCN(c3ccc(Cl)c(Cl)c3)CC2)c1O,1.6,64,8,0.4,16,0.4,64,8,64,16,32,0.4,32,0.05,64,64,64,64,16,16,MIC (Escherichia coli [19]): 64 µg/mL; Activity (Human alphaherpesvirus 1 [20]): 0.1 µg/mL; MIC (Klebsiella pneumoniae [21]): 64 µg/mL; MIC (Acinetobacter baumannii [22]): 32 µg/mL
O=c1cc(CCl)oc(CN2CCN(c3ccccc3F)CC2)c1O,0.8,64,16,0.8,32,0.2,64,16,16,8,32,0.8,16,0.025,32,32,16,64,8,8,MIC (Escherichia coli [19]): 64 µg/mL; Activity (Human alphaherpesvirus 1 [20]): 0.05 µg/mL; MIC (Klebsiella pneumoniae [21]): 64 µg/mL; MIC (Acinetobacter baumannii [22]): 64 µg/mL
COc1cccc(N2CCN(Cc3oc(CCl)cc(=O)c3O)CC2)c1,0.8,64,64,0.8,32,0.4,128,64,32,8,32,1.6,32,0.1,128,32,32,64,8,16,MIC (Escherichia coli [19]): 64 µg/mL; Activity (Human alphaherpesvirus 1 [20]): 0.2 µg/mL; MIC (Klebsiella pneumoniae [21]): 64 µg/mL; MIC (Acinetobacter baumannii [22]): 64 µg/mL
O=c1cc(CCl)oc(CN2CCN(c3cccc(Cl)c3)CC2)c1O,1.6,64,8,0.8,32,0.8,128,8,32,16,32,0.8,32,0.025,128,32,32,64,16,16,MIC (Escherichia coli [19]): 64 µg/mL; Activity (Human alphaherpesvirus 1 [20]): 0.1 µg/mL; MIC (Klebsiella pneumoniae [21]): 64 µg/mL; MIC (Acinetobacter baumannii [22]): 64 µg/mL
